Measured values as given in patent US7745390B2, “Antimicrobial peptides” (priority 2005, dated 2010).
Bridge positions count the residues as written; N and C are the ends. Square brackets hold non-standard residues; d marks the D form. Peptide text beside a SMILES is read from it. Chg = N[C@H](C(=O)O)C1CCCCC1

Key:
B. cereus = type: cell-based; conditions: pH 7.2
Method: (§1) The experiments described above characterizing the activity of granulysin peptides G1-G18 relied on counting bacterial colonies on plates. This assay is quite labor intensive and would not allow evaluation of many different compounds on a number of different microbes. Therefore, we optimized an assay in which the entire procedure could be completed in a single microtiter well. Briefly, peptides are diluted in 10 mM phosphate buffer, pH 7.2 supplemented with 0.03% LB (J. Sambrook, D. W. Russell, Molecular Cloning: A Laboratory Manual (Cold Spring Harbor Laboratory Press, New York, ed. 3, 2001) pg. A2.2, Retrieved from http://openwetware.org/wiki/LB) and 25 μl is added to microtiter wells. Bacteria (25 μl) are added (˜5×10^6 colony forming units/ml) in the same buffer. After a 3-hour incubation at 37° C., 150 μl of LB is added and the plates are incubated overnight. The OD at 600 nm is read on an ELISA plate reader. The minimum inhibitory concentration (MIC) is the lowest concentration allowing no bacterial growth. The IC50 is the concentration of peptide that results in 50% growth compared to the medium.
(§2) We now describe additional peptides and their activity. The peptides have been designed, synthesized, and have been tested for lysis of E. coli and S. typhimurium (gram negative bacteria), B. cereus (gram positive bacterium). Results are shown in Table 2 along with the amino acid sequence of the peptide. Changes from the naturally occurring sequence are underlined. In general, the desired result is lysis of bacteria at low concentration (<1 μM).
(§3) In Table 2, Columns 2-7 are the MIC and IC50 (concentration required for 50% inhibition of growth) for each organism (E. coli, Salmonella, and B. cereus). The MIC (minimum inhibitory concentration) was determined as described above, in a multiwell plate assay. […] L-isomer amino acids are designated by capital letters while D-isomer amino acids are designated by lower case letters.

E. coli DH5a = type: cell-based; conditions: DH5a, pH 7.2
Method: as §1, §2, §3

Salmonella = type: cell-based, S. typhimurium; conditions: pH 7.2
Method: as §1, §2, §3

SMILES	B. cereus MIC (B. cereus) [µM]	IC50 (B. cereus) [nM]	E. coli DH5a MIC (E. coli DH5a) [µM]	IC50 (E. coli DH5a) [nM]	IC50 (Salmonella) [nM]	Salmonella MIC (Salmonella) [µM]
CSCC[C@@H]1NC(=O)[C@H](Cc2ccccc2)NC(=O)[C@H](CCCCN)NC(=O)[C@H](CCCCN)NC(=O)[C@H](CO)NC(=O)[C@H](C(C)C)NC(=O)[C@H](CCCCN)NC(=O)[C@H](CCCCN)NC(=O)[C@@H](N)CSSC[C@@H](C(N)=O)NC(=O)[C@H](CCCCN)NC(=O)[C@H](CCCCN)NC(=O)[C@H](CCSC)NC(=O)[C@H](Cc2ccccc2)NC(=O)[C@H](CCCCN)NC(=O)[C@H](CCCCN)NC(=O)[C@H](CO)NC(=O)[C@H](C(C)C)NC(=O)[C@H](CCCCN)NC(=O)[C@H](CCCCN)NC(=O)[C@H](CO)NC(=O)CNC(=O)[C@H](CCCCN)NC(=O)[C@H](CCCCN)NC1=O [G11.31 CYC] (H-CKKVSKKFMKKGSKKVSKKFMKKC-NH2; disulfide 1-24; N-terminus assumed)	0.7	400	0.61	420	410	0.7
CSCC[C@H](NC(=O)[C@H](Cc1ccccc1)NC(=O)[C@H](CCCCN)NC(=O)[C@H](CCCCN)NC(=O)[C@H](CO)NC(=O)[C@@H](NC(=O)[C@H](CCCCN)NC(=O)[C@H](CCCCN)NC(=O)[C@H](CO)NC(=O)CNC(=O)[C@H](CCCCN)NC(=O)[C@H](CCCCN)NC(=O)[C@H](CCSC)NC(=O)[C@H](Cc1ccccc1)NC(=O)[C@H](CCCCN)NC(=O)[C@H](CCCCN)NC(=O)[C@H](CO)NC(=O)[C@@H](NC(=O)[C@H](CCCCN)NC(=O)[C@@H](N)CCCCN)C(C)C)C(C)C)C(=O)N[C@@H](CCCCN)C(=O)N[C@@H](CCCCN)C(=O)O [Peptide G11.15]	>10	5850	1.38	800	410	0.7
CSCC[C@H](NC(=O)[C@H](Cc1ccccc1)NC(=O)[C@H](CCCNC(=N)N)NC(=O)[C@H](CCCNC(=N)N)NC(=O)[C@@H](NC(=O)[C@@H](NC(=O)[C@H](CCCNC(=N)N)NC(=O)[C@@H](N)CCCNC(=N)N)C(C)C)C1CCCCC1)C(=O)N[C@@H](CCCNC(=N)N)C(=O)N[C@@H](CCCNC(=N)N)C(=O)O [Peptide G11.18, RRV-Chg-RRFMRR] (H-RRV[Chg]RRFMRR-OH; N-terminus and C-terminus assumed)	5.7	3510	5.65	3400	880	1.4
CSCC[C@@H](NC(=O)[C@@H](Cc1ccccc1)NC(=O)[C@@H](CCCNC(=N)N)NC(=O)[C@@H](CCCNC(=N)N)NC(=O)[C@@H](CO)NC(=O)[C@H](NC(=O)[C@@H](CCCNC(=N)N)NC(=O)[C@H](N)CCCNC(=N)N)C(C)C)C(=O)N[C@H](CCCNC(=N)N)C(=O)N[C@H](CCCNC(=N)N)C(=O)O [Peptide G11.24, rrvsrrfmrr] (H-[dR][dR][dV][dS][dR][dR][dF][dM][dR][dR]-OH; N-terminus and C-terminus assumed)	>10	> 10000	1.4	850	850	1.4

Other lines, results leading:

B. cereus MIC (B. cereus) [µM]	IC50 (B. cereus) [nM]	E. coli DH5a MIC (E. coli DH5a) [µM]	IC50 (E. coli DH5a) [nM]	IC50 (Salmonella) [nM]	Salmonella MIC (Salmonella) [µM]	SMILES
>10	> 10000	>10	> 10000	> 10000	>10	CSCC[C@H](NC(=O)[C@H](Cc1ccccc1)NC(=O)[C@@H](CCCNC(=N)N)NC(=O)[C@@H](CCCNC(=N)N)NC(=O)[C@H](CO)NC(=O)[C@H](NC(=O)[C@@H](CCCNC(=N)N)NC(=O)[C@@H](N)CCCNC(=N)N)C(C)C)C(=O)N[C@H](CCCNC(=N)N)C(=O)N[C@@H](CCCNC(=N)N)C(=O)N[C@@H](CC(=O)O)C(N)=O [Peptide G11.45, RrvSrrFMrRD] (H-R[dR][dV]S[dR][dR]FM[dR]RD-NH2; N-terminus assumed)
0.32	100	0.18	100	150	0.45	CSCC[C@H](NC(=O)[C@H](Cc1ccccc1)NC(=O)[C@@H](CCCNC(=N)N)NC(=O)[C@@H](CCCNC(=N)N)NC(=O)[C@H](CO)NC(=O)[C@@H](NC(=O)[C@@H](CCCNC(=N)N)NC(=O)[C@@H](CCCNC(=N)N)NC(=O)[C@@H](CCCNC(=N)N)NC(=O)[C@@H](CCCNC(=N)N)NC(=O)[C@@H](CCCNC(=N)N)NC(=O)[C@@H](CCCNC(=N)N)NC(=O)[C@@H](CCCNC(=N)N)NC(=O)[C@H](CCC(N)=O)NC(=O)[C@H](CC(C)C)NC(=O)[C@H](CCCCN)NC(=O)[C@H](CO)NC(=O)[C@H](CO)NC(=O)[C@H](Cc1c[nH]cn1)NC(=O)[C@H](CC(=O)O)NC(=O)CNC(=O)CNC(=O)[C@H](CC(=O)O)NC(=O)CNC(=O)CNC(=O)[C@@H](N)CC(=O)O)C(C)C)C(=O)N[C@H](CCCNC(=N)N)C(=O)N[C@H](CCCNC(=N)N)C(=O)O [Peptide G11.47, DGGDGGDHSSKLQrrrrrrrVSrrFMrr] (H-DGGDGGDHSSKLQ[dR][dR][dR][dR][dR][dR][dR]VS[dR][dR]FM[dR][dR]-OH; N-terminus and C-terminus assumed)
5.7	3550	>10	2100	> 10000	>10	CSCC[C@H](NC(=O)[C@H](Cc1ccccc1)NC(=O)[C@H](CCCNC(=N)N)NC(=O)[C@H](CCCNC(=N)N)NC(=O)[C@H](CO)NC(=O)[C@@H](NC(=O)[C@H](CCCNC(=N)N)NC(=O)[C@H](CCCNC(=N)N)NC(=O)[C@H](CS)NC(=O)[C@H](CS)NC(=O)[C@H](CCCNC(=N)N)NC(=O)[C@H](CCCNC(=N)N)NC(=O)[C@@H](NC(=O)[C@H](CO)NC(=O)[C@H](CCCNC(=N)N)NC(=O)[C@H](CCCNC(=N)N)NC(=O)[C@H](Cc1ccccc1)NC(=O)[C@H](CCSC)NC(=O)[C@H](CCCNC(=N)N)NC(=O)[C@@H](N)CCCNC(=N)N)C(C)C)C(C)C)C(=O)N[C@@H](CCCNC(=N)N)C(=O)N[C@@H](CCCNC(=N)N)C(=O)O [Peptide G11.48] (H-RRMFRRSVRRCCRRVSRRFMRR-OH; N-terminus and C-terminus assumed)
0.35	210	>10	8250	> 10000	>10	CSCC[C@@H](NC(=O)[C@@H](Cc1ccccc1)NC(=O)[C@@H](CCCCN)NC(=O)[C@@H](CCCCN)NC(=O)[C@@H](CO)NC(=O)[C@H](NC(=O)[C@@H](CCCCN)NC(=O)[C@@H](CCCCN)NC(=O)[C@@H](CO)NC(=O)CNC(=O)[C@@H](CCCCN)NC(=O)[C@@H](CCCCN)NC(=O)[C@@H](CCSC)NC(=O)[C@@H](Cc1ccccc1)NC(=O)[C@@H](CCCCN)NC(=O)[C@@H](CCCCN)NC(=O)[C@@H](CO)NC(=O)[C@H](NC(=O)[C@@H](CCCCN)NC(=O)[C@H](N)CCCCN)C(C)C)C(C)C)C(=O)N[C@H](CCCCN)C(=O)N[C@H](CCCCN)C(=O)O [Peptide G11.54, kkvskkfmkkgskkvskkfmkk]
0.2	100	4	980	> 10000	>10	CSCC[C@@H](NC(=O)[C@@H](Cc1ccccc1)NC(=O)[C@@H](CCCCN)NC(=O)[C@@H](CCCCN)NC(=O)[C@@H](CO)NC(=O)[C@H](NC(=O)[C@@H](CCCCN)NC(=O)[C@@H](CCCCN)NC(=O)[C@@H](CO)NC(=O)CNC(=O)[C@@H](CCCCN)NC(=O)[C@@H](CCCCN)NC(=O)[C@@H](CCSC)NC(=O)[C@@H](Cc1ccccc1)NC(=O)[C@@H](CCCCN)NC(=O)[C@@H](CCCCN)NC(=O)[C@@H](CO)NC(=O)[C@H](NC(=O)[C@@H](CCCCN)NC(=O)[C@@H](CCCCN)NC(=O)[C@@H](CO)NC(=O)CNC(=O)[C@@H](CCCCN)NC(=O)[C@@H](CCCCN)NC(=O)[C@@H](CCSC)NC(=O)[C@@H](Cc1ccccc1)NC(=O)[C@@H](CCCCN)NC(=O)[C@@H](CCCCN)NC(=O)[C@@H](CO)NC(=O)[C@H](NC(=O)[C@@H](CCCCN)NC(=O)[C@H](N)CCCCN)C(C)C)C(C)C)C(C)C)C(=O)N[C@H](CCCCN)C(=O)N[C@H](CCCCN)C(=O)O [Peptide G11.55, kkvskkfmkkgskkvskkfmkkgskkvskkfmkk] (H-[dK][dK][dV][dS][dK][dK][dF][dM][dK][dK]G[dS][dK][dK][dV][dS][dK][dK][dF][dM][dK][dK]G[dS][dK][dK][dV][dS][dK][dK][dF][dM][dK][dK]-OH; N-terminus and C-terminus assumed)
